Test results published in patent US8563713B2, “Antibodies specific to carbamazepine” (priority 2011, dated 2013).

system: antibody specific to carbamazepine; experiment: Interference from other drugs in the carbamazepine ELISA assay; format: binding, rabbit; details: chemical tested at 10.0 μg/ml; procedures of Example 4 (competitive ELISA); tested in duplicate
Method: Production of the antibodies of the present disclosure was performed with conventional methods. In brief, the immunogen as prepared in Example 2 was diluted to 1.0 mg/ml in phosphate buffered saline (PBS). 1.0 ml of the immunogen solution was injected into rabbits with complete Freunds adjuvant. After 2-3 weeks, the animal was injected with 1.0 ml of the same immunogen solution with incomplete Freunds adjuvant. The same injection was repeated every other week until acceptable titer was obtained.
The Carbamazepine ELISA was developed with the antibody generated from Example 3. This assay is a competitive micro-immunoassay for determination of carbamazepine in a fluid sample. Carbamazepine in the fluid sample and carbamazepine derivative linked with the enzyme (HRP)-conjugate compete for the finite sites of the antibody coated on the solid surface of the microwell. If little or no carbamazepine is present in the fluid sample, more enzyme labeled carbamazepine derivative will bind to the antibody on the solid surface. Conversely, if a large or a significant amount of carbamazepine is present in the fluid sample, less enzyme labeled carbamazepine derivative will bind to the antibody, producing less color signal. The absorbance produced is inversely proportional to the amount of carbamazepine in the fluid sample.
Interference from other drugs was tested using 30 frequently used chemicals and medicines, at concentrations of 10.0 μg/ml.
The samples were tested in duplicate, following the procedures used in Example 4. All 30 samples produced a negative test result. Thus, the immunoassay of the present disclosure is specific to carbamazepine.

| Compound | Equivalent Carbamazepine Conc. [µg/mL] |
| --- | --- |
| CN[C@@H](C)[C@H](O)c1ccccc1 [(L)-Ephedrine] | <0.1 |
| CN1C(=O)CC[C@H]1c1cccnc1 [(−)-Cotinine] | <0.1 |
| CC(=O)Oc1ccccc1C(=O)O [Acetylsalicylic Acid] | <0.1 |
| CCC1(CCC(C)C)C(=O)NC(=O)NC1=O [Amobarbital] | <0.1 |
| CC1(C)S[C@@H]2[C@H](NC(=O)[C@H](N)c3ccccc3)C(=O)N2[C@H]1C(=O)O [Ampicillin] | <0.1 |
| Cn1c(=O)c2c(ncn2C)n(C)c1=O [Caffeine] | <0.1 |
| CN(C)CCCN1c2ccccc2Sc2ccc(Cl)cc21 [Chlorpromazine] | <0.1 |
| O=C(O)C1N=C(c2ccccc2)c2cc(Cl)ccc2NC1=O (centres unmarked) [Clorazepate] | <0.1 |
| CN1C(=O)CN=C(c2ccccc2)c2cc(Cl)ccc21 [Diazepam] | <0.1 |
| COC(=O)[C@@H]1[C@H]2CC[C@@H](C[C@@H]1O)N2C [Ecgonine Methyl Ester] | <0.1 |
| CC(C(=O)O)c1cccc(Oc2ccccc2)c1 (centres unmarked) [Fenoprofen] | <0.1 |
| Cc1ccc(C)c(OCCCC(C)(C)C(=O)O)c1 [Gemfibrozil] | <0.1 |
| O=C(O)c1cc(O)ccc1O [Gentisic Acid] | <0.1 |
| COc1ccc2c3c1O[C@H]1C(=O)CC[C@H]4[C@@H](C2)N(C)CC[C@]314 [Hydrocodone] | <0.1 |
| CC(C)Cc1ccc(C(C)C(=O)O)cc1 (centres unmarked) [Ibuprofen] | <0.1 |
| CN(C)CCCN1c2ccccc2CCc2ccccc21 [Imipramine] | <0.1 |
| CCN(CC)CC(=O)Nc1c(C)cccc1C [Lidocaine] | <0.1 |
| COc1ccc2cc([C@H](C)C(=O)O)ccc2c1 [Naproxen] | <0.1 |
| NC(=O)c1cccnc1 [Niacinamide] | <0.1 |
| CNC[C@H](O)c1cccc(O)c1 [Phenylephrine] | <0.1 |
| CC(N)C(O)c1ccccc1 (centres unmarked) [Phenylpropanolamine] | <0.1 |
| CCN(CC)CCNC(=O)c1ccc(N)cc1 [Procainamide] | <0.1 |
| CCN(CC)CCOC(=O)c1ccc(N)cc1 [Procaine] | <0.1 |
| C=C[C@H]1C[N@@]2CC[C@H]1C[C@@H]2[C@@H](O)c1ccnc2ccc(OC)cc12 [Quinidine] | <0.1 |
| Cc1cc(CC(=O)O)n(C)c1C(=O)c1ccc(Cl)cc1 [Zomepirac] | <0.1 |
| NCCc1ccccc1 [beta-Phenylethylamine] | <0.1 |
| CN[C@@H](C)Cc1ccccc1 [d-Methamphetamine] | <0.1 |
| Ecgonine | <0.1 |
| Penicillin | <0.1 |
